Literature values in patent US4033823A, “Process to produce lysocellin” (Hoffmann-La Roche Inc., priority 1976, dated 1977).

Legend:
[1] = mice, intraperitoneally
Bacillus subtilis [2] = test system: Bacillus subtilis
[3] = test system: Antibiotic resistant E. coli; settings: E. coli resistant to streptomycin, chloramphenicol, kanamycin, tetracyclin and sulfonamide
[4] = test system: antibiotic resistant Staphylococcus aureus
fungi = settings: some fungi
Bacillus subtilis [5] = settings: Bacillus subtilis grown on liquid medium
[6] = test system: Antibiotic resistant S. aureus; settings: S. aureus resistant to streptomycin, erythromycin, chloramphenicol and penicillin
[7] = 66% dimethylformamide
staphylococcus aureus = settings: intraperitoneal administration
[8] = test system: Staphylococcus aureus FDA 209P

Lysocellin
LD50 [1]: about 70 mg/kg | Minimum inhibitory Concentration (Helminthosporium oryzae): 50 µg/mL | Minimum inhibitory Concentration (Pseudomonas aeruginosa): > 100 µg/mL | Minimum inhibitory Concentration (Salmonella typhimurium): > 100 µg/mL | Minimum inhibitory Concentration (Bacillus subtilis [2]): 10 µg/mL | Minimum inhibitory Concentration (Mycobacterium smegmatis): 20 µg/mL | Minimum inhibitory Concentration (Botrytis cinerea): 50 µg/mL | Antimicrobial activity (gram-negative bacteria): not active | Minimum inhibitory Concentration [3]: > 100 µg/mL | Antimicrobial activity [4]: active | Antimicrobial activity (fungi): active against some fungi | bacterial lysis (Bacillus subtilis [5]): caused bacterial lysis | Minimum inhibitory Concentration [6]: 4 µg/mL | Antimicrobial activity (gram-positive bacteria): active | pKa' [7]: 6.6 | Minimum inhibitory Concentration (Alternaria kikuchiana): 100 µg/mL | Minimum inhibitory Concentration (Sarcina lutea): 10 µg/mL | activity against staphylococcus aureus infection in mice (staphylococcus aureus): inactive | Minimum inhibitory Concentration [8]: 10 µg/mL | Minimum inhibitory Concentration (Fusarium oxysporum): 100 µg/mL | Minimum inhibitory Concentration (Shigella dysenteriae): > 100 µg/mL | Minimum inhibitory Concentration (Escherichia coli): > 100 µg/mL
